US20120010075A1 (priority 2009, published 2012)
Where two headings read alike, the source gives them in different places.

Tests used:
Alternaria solani = experiment: Compound 16 and copper materials against tomato early blight (Example 37, Tables 17-20); type: in vivo, Alternaria solani on tomato (Outdoor Girl)
[1] = system: Colletotrichum lagenarium; experiment: Compound 16 and copper materials against cucumber anthracnose (Example 37, Tables 21-24); type: in vivo, Colletotrichum lagenarium on cucumber (Bush Pickle)
[2] = system: Leptosphaeria nodorum (LEPTNO); experiment: In vitro fungitoxicity of hydrazones with and without copper towards Leptosphaeria nodorum (Example 26); type: cell-based; details: 72 h at 25° C.; for inhibition of growth at 0.05 µg/mL: Parastagonospora nodorum, 72 h, copper-minus medium, read-out: LEPTNO % Inhn. Minus Copper Observed
Phytophthora infestans = type: in vivo, Phytophthora infestans on tomato; details: applied 24 h before inoculation, assessed 7 days after inoculation
Phytophthora capsici = experiment: In vitro fungitoxicity of hydrazones with and without copper towards Phytophthora capsici (Example 28, Table 3); type: cell-based; details: 0.050 μg/mL, 48 h; for % Inhn Plus copper Observed: copper-plus AS medium (CuCl2, 50 μM); for inhibition of growth at 0.05 µg/mL: Phytophthora capsici, copper-minus AS medium, read-out: % Inhn Minus copper Observed
Ustilago maydis = experiment: In vitro fungitoxicity of hydrazones with and without copper towards Ustilago maydis (Example 29, Table 4); type: cell-based; details: 1 μg/mL, 48 h; for % Inhn. Plus copper Observed: copper-plus medium (CuCl2, 10 μM); for inhibition of growth at 1 µg/mL: Mycosarcoma maydis, copper-minus medium, read-out: % Inhn. Minus copper Observed
[3] = system: Septoria tritici isolate USA-184; experiment: In vitro fungitoxicity of hydrazones with and without copper towards Septoria tritici (Example 30, Table 5); type: cell-based; details: Zymoseptoria tritici, 0.05 μg/mL
[4] = system: Leptosphaeria nodorum (LEPTNO); experiment: Isolated metal-hydrazone complexes versus parent hydrazones, in vitro, Leptosphaeria nodorum (Example 31, Table 7); type: cell-based; details: Parastagonospora nodorum; 0.1 μg/mL; copper-minus medium; 72 h
[5] = compound 0.05 μg/mL, copper-plus medium (CuCl2.2H2O)
[6] = hydrazone 50 ppm + 50 μM CuCl2.2H2O, tomato
[7] = Colby formula, CuCl2, read-out: % Inhibition Plus copper Predicted
[8] = copper-minus medium, 90 h, read-out: % Inhibition Minus copper Observed
[9] = copper-plus medium CuCl2, 90 h, read-out: % Inhibition Plus copper Observed
[10] = test compound Concn. 0.05 μg/mL
[11] = copper-plus medium (CuCl2 10 μM), test compound Concn. 0.05 μg/mL
[12] = hydrazone 50 ppm with 50 μM CuCl2.2H2O, tomato late blight

SMILES | % Inhn Plus copper Observed (Phytophthora capsici) [%] | inhibition of growth at 0.05 µg/mL (Phytophthora capsici) [%] | % Inhn. Plus copper Observed (Ustilago maydis) [%] | inhibition of growth at 1 µg/mL (Ustilago maydis) [%] | inhibition at 0.05 µg/mL [3, 7] [%] | inhibition at 0.05 µg/mL [3, 8] [%] | inhibition at 0.05 µg/mL [3, 9] [%] | inhibition at 0.1 µg/mL [4] [%] | melting point [°C] | inhibition of growth at 0.05 µg/mL [2, 10] [%] | LEPTNO % Inhn. Plus Copper Observed [2, 11] [%] | TLB % Control (Phytophthora infestans; [12]) [%] | further results
O.O.[Cl][Cu][Cl] [CuCl2•2H2O] |  |  |  |  |  |  |  |  |  |  |  |  | % Control of Tomato Early Blight (Alternaria solani; copper material 10 μM alone): 0.0%; % Control of Tomato Early Blight (Alternaria solani; copper material 50 μM alone): 0.0%; % Control of Tomato Early Blight (Alternaria solani; copper material 200 μM alone): 50.4%; % Control of Tomato Early Blight (Alternaria solani; copper material 400 μM alone): 72.5%; % Control of Tomato Early Blight (Alternaria solani; copper material 800 μM alone): 83.3%; % Control of Cucumber Anthracnose ([1]; copper material 10 μM alone): 9.6%; % Control of Cucumber Anthracnose ([1]; copper material 50 μM alone): 1.4%; % Control of Cucumber Anthracnose ([1]; copper material 200 μM alone): 37.2%; % Control of Cucumber Anthracnose ([1]; copper material 400 μM alone): 76.2%; % Control of Cucumber Anthracnose ([1]; copper material 800 μM alone): 90.0%
O.O.O.O.O.O=S(=O)([O-])[O-].[Cu+2] [CuSO4•5H2O] |  |  |  |  |  |  |  |  |  |  |  |  | % Control of Tomato Early Blight (Alternaria solani; copper material 10 μM alone): 0.0%; % Control of Tomato Early Blight (Alternaria solani; copper material 50 μM alone): 7.1%; % Control of Tomato Early Blight (Alternaria solani; copper material 200 μM alone): 54.4%; % Control of Tomato Early Blight (Alternaria solani; copper material 400 μM alone): 64.1%; % Control of Tomato Early Blight (Alternaria solani; copper material 800 μM alone): 71.6%; % Control of Cucumber Anthracnose ([1]; copper material 10 μM alone): 1.4%; % Control of Cucumber Anthracnose ([1]; copper material 50 μM alone): 0.0%; % Control of Cucumber Anthracnose ([1]; copper material 200 μM alone): 61.3%; % Control of Cucumber Anthracnose ([1]; copper material 400 μM alone): 75.7%; % Control of Cucumber Anthracnose ([1]; copper material 800 μM alone): 87.1%
O=C(N/N=C/c1cc(Cl)ccc1O)c1ccccc1 [Example 20] | 90.4 | 2.1 | 91.0 | 1.2 | 0 | 0 | 95.3 | 14.7 |  |  |  |  | inhibition of growth at 0.05 µg/mL ([2]; compound 0.05 μg/mL): 2.8%; LEPTNO % Inhn. Plus Copper Observed [2, 5]: 96.5%; TLB % Control (Phytophthora infestans; [6]): 96.5%
C/C(=N\NC(=O)c1ccccc1)c1cc(Cl)cc(Cl)c1O [Example 60] | 76.4 | 4.1 | 93.5 | 0 | 20.6 | 20.6 | 94.8 | 23.3 |  |  |  |  | inhibition of growth at 0.05 µg/mL ([2]; compound 0.05 μg/mL): 7.3%; LEPTNO % Inhn. Plus Copper Observed [2, 5]: 97.5%; TLB % Control (Phytophthora infestans; [6]): 85.0%
O=C(N/N=C/c1cc(C(F)(F)F)ccc1O)c1ccccc1 [Example 277] | 88.2 | 0 | 83.5 | 1.7 | 3.6 | 3.6 | 88 | 0.6 | 214 to 217 |  |  |  | inhibition of growth at 0.05 µg/mL ([2]; compound 0.05 μg/mL): 1.9%; LEPTNO % Inhn. Plus Copper Observed [2, 5]: 97.5%; TLB % Control (Phytophthora infestans; [6]): 86.4%
O=C(N/N=C/c1cc(Cl)cc(C(F)(F)F)c1O)c1ccccc1 [Example 320] | 81.4 | 2.9 | 95.2 | 0 | 9.5 | 9.5 | 92.1 | 22.1 | 225 to 226 | 17.1 | 96.4 | 100.0 | 
O=C(N/N=C/c1cc(C(F)(F)F)cc(C(F)(F)F)c1O)c1ccc(Cl)cc1 [Example 337] | 42.1 | 4.7 | 97.8 | 22 | 46.8 | 46.8 | 97.1 | 39.9 | 233 to 236 | 22.4 | 98.0 | 97.0 | 
O=C(N/N=C/c1c(Cl)ccc(Cl)c1O)c1ccc(Cl)cc1 [Example 370] |  |  |  |  |  |  |  | 23.1 | 271 to 273 | 3.5 | 97.5 | 91.0 | 
O=C(N/N=C/c1cc(Cl)cc(C(F)(F)F)c1O)c1ccc(Cl)cc1 [Example 381] |  |  |  |  |  |  |  | 43.9 | 232 to 234 | 31.8 | 98.6 | 100.0 | 
O=C(N/N=C/c1c(O)cccc1Cl)c1ccc(Cl)cc1 [Example 403] |  |  |  |  |  |  |  | 12.1 | 273 to 277 | 0 | 97.3 | 97.0 | 
Cc1ccc(C(=O)N/N=C/c2cc(Br)cc(F)c2O)cc1 [Example 411] |  |  |  |  |  |  |  | 32.1 | 228 to 229 | 8.2 | 97.9 | 85.0 | 
O=C(N/N=C/c1cc(Br)cc(F)c1O)c1ccc(C(F)(F)F)cc1 [Example 412] |  |  |  |  |  |  |  | 40.4 | 240 to 241 | 7.7 | 97.8 | 100.0 | 
O=C(N/N=C/c1cccc(Cl)c1O)c1ccc(Cl)cc1 [Example 428] |  |  |  |  |  |  |  | 29.9 | 217 to 219 | 44.1 | 98.4 | 97.0 | 
O=C(N/N=C/c1cc(C(F)(F)F)ccc1O)c1ccc(Cl)cc1 [Example 440] |  |  |  |  |  |  |  | 23.8 | 252 to 254 | 2.9 | 100.0 | 98.0 | 
O=C(N/N=C/c1c(C(F)(F)F)ccc(Cl)c1O)c1ccc(Cl)cc1 [Example 452] |  |  |  |  |  |  |  | 19.3 | 236 to 238 | 12.9 | 100.0 | 100.0 | 
